This is an account of results in ChEMBL document CHEMBL3045108, “Advanced QSRR models of toxicological screening of basic drugs in whole blood by UPLC-TOFMS” (Med Chem Res, 2012).

The data set relates to Blood. The experiment in a line: Drug level in Homo sapiens (human) whole blood assessed as retention time by UPLC-TOF-MS analysis.
Regarding `CN1C(=O)CN=C(c2ccccc2F)c2cc([N+](=O)[O-])ccc21` [FLUNITRAZEPAM], the Retention_time is on record as 6.16 min.
Then `COc1ccc2c3c1O[C@H]1C(=O)CC[C@@]4(O)[C@@H](C2)N(C)CC[C@]314` [OXYCODONE], with 2.67 min; and `CN1C(=O)CC(=O)N(c2ccccc2)c2cc(Cl)ccc21` [CLOBAZAM], with 6.28 min; and `OC(CCN1CCCCC1)(c1ccccc1)C1CC2C=CC1C2` (stereo not drawn) [BIPERIDEN], with 5.78 min.
Next, `CC(CN(C)C)CN1c2ccccc2CCc2ccccc21` (stereo not drawn) [TRIMIPRAMINE]: 6.05 min; `CN(C)CCc1c[nH]c2ccccc12`: 2.89 min.
Next, `CC(C)NCC(O)COc1ccc(COCCOC(C)C)cc1` (stereo not drawn) [BISOPROLOL]: 5.06 min; `CCOC(=O)C1=C(C)NC(C)=C(C(=O)OC)C1c1cccc(Cl)c1Cl` (stereo not drawn) [FELODIPINE]: 7.44 min; `O=C1CN=C(c2ccccn2)c2cc(Br)ccc2N1` [BROMAZEPAM]: 5.33 min.
Regarding `CN1CC[C@]23c4c5ccc(O)c4O[C@H]2C(=O)CC[C@H]3[C@H]1C5` [HYDROMORPHONE], the Retention_time is 1.84 min.
Next, `O=c1[nH]c2ccccc2n1C1CCN(CCCC(c2ccc(F)cc2)c2ccc(F)cc2)CC1` [PIMOZIDE]: 6.28 min; `CC(C)(C)NCC(O)c1cc(O)cc(O)c1` (stereo not drawn) [TERBUTALINE]: 1.93 min; `C#CCN(C)[C@H](C)Cc1ccccc1` [SELEGILINE]: 3.55 min.
Next, `CN(C)CCCN1c2ccccc2Sc2ccc(Cl)cc21` [CHLORPROMAZINE]: 6.12 min.
For the compound `COC(=O)C(c1ccccc1)C1CCCCN1` (stereo not drawn) [METHYLPHENIDATE], the Retention_time was 4.16 min.
Then `CN(C)CCCC1(c2ccc(F)cc2)OCc2cc(C#N)ccc21` (stereo not drawn) [CITALOPRAM], with 5.53 min.
Consider `CN[C@@H](C)Cc1ccccc1` [METHAMPHETAMINE], for which the Retention_time was 2.86 min.
Then `COc1cc(CCN)c(OC)cc1I`, with 4.92 min; and `Clc1ccc2c(c1)C(c1ccccc1)=NCc1nncn1-2` [ESTAZOLAM], with 5.95 min; and `C(=C\c1ccccc1)/CN1CCN(C(c2ccccc2)c2ccccc2)CC1` [CINNARIZINE], with 6.57 min.
Then `NCC1(CC(=O)O)CCCCC1` [GABAPENTIN], with 2.41 min; and `COC(=O)[C@H]1[C@@H](OC(=O)c2ccccc2)C[C@@H]2CC[C@H]1N2C` [COCAINE], with 4.46 min.
Consider `CCOC(=O)C1(c2ccccc2)CCN(C)CC1` [MEPERIDINE], for which the Retention_time was 4.68 min.
Next, `COc1cc(CCN)cc(OC)c1OC` [MESCALINE]: 2.77 min.
Turning to `O=C1CN=C(c2ccccc2)c2cc(Cl)ccc2N1CC1CC1` [PRAZEPAM], the Retention_time amounted to 7.25 min.
Next, `CCOC(=O)C1=C(COCCN)NC(C)=C(C(=O)OC)C1c1ccccc1Cl` (stereo not drawn) [AMLODIPINE]: 5.94 min; `CC(N)Cc1ccc2c(c1)OCO2` (stereo not drawn) [TENAMFETAMINE]: 2.7 min; `CN1[C@H]2CC[C@@H]1[C@@H](C(=O)O)[C@@H](OC(=O)c1ccccc1)C2` [THERACYS]: 3.48 min.
Consider `COCCOC(=O)C1=C(C)NC(C)=C(C(=O)OC(C)C)C1c1cccc([N+](=O)[O-])c1` (stereo not drawn) [NIMODIPINE], for which the Retention_time was determined as 7.14 min.
Next, `CCC(=O)C1(c2cccc(O)c2)CCN(C)CC1` [KETOBEMIDONE]: 3.22 min; `CN(C)CCCN1c2ccccc2CCc2ccc(Cl)cc21` [CLOMIPRAMINE]: 6.22 min.
On to `CCN1CCCC1CNC(=O)c1cc(S(N)(=O)=O)ccc1OC` (stereo not drawn) [SULPIRIDE], for which the Retention_time is 2.21 min.
Then `CN(C)C(=O)Oc1cc(OC(=O)N(C)C)cc(C(O)CNC(C)(C)C)c1` (stereo not drawn) [BAMBUTEROL], with 4.84 min; and `CCN(CC)C(=O)[C@@H]1C=C2c3cccc4[nH]cc(c34)C[C@H]2N(C)C1` [LYSERGIDE], with 4.88 min.
As to `Cc1ccccc1C(OCCN(C)C)c1ccccc1` (stereo not drawn) [ORPHENADRINE], the Retention_time is listed as 5.75 min.
For the compound `CC(C=C(c1ccccc1)c1ccccc1)N(C)C` (stereo not drawn), the Retention_time amounted to 5.72 min.
Next, `NC(=O)N1c2ccccc2CC(=O)c2ccccc21` [OXCARBAZEPINE]: 5.29 min; `COc1cc(CCN)c(OC)cc1Br`: 4.52 min; `C[C@H](N)[C@@H](O)c1ccccc1` [CATHINE]: 2.05 min.
On to `CNC1(c2ccccc2Cl)CCCCC1=O` (stereo not drawn) [KETAMINE], for which the Retention_time is recorded as 3.57 min.
Next, `CN(C)CCC=C1c2ccccc2CCc2ccccc21` [AMITRIPTYLINE]: 5.86 min; `CN(C)CCC=C1c2ccccc2COc2ccccc21` [DOXEPIN]: 5.59 min; `O=C1C[N+]([O-])=C(c2ccccc2)c2cc(Cl)ccc2N1` [DEMOXEPAM]: 5.62 min.
Next, `O=C1CN=C(c2ccccc2)c2cc(Cl)ccc2N1CC(F)(F)F` [HALAZEPAM]: 7.22 min.
Then `CCCC(=O)Nc1ccc(OCC(O)CNC(C)C)c(C(C)=O)c1` (stereo not drawn) [ACEBUTOLOL], with 4.07 min.
As to `CC[C@H]1C[C@@H]2C[C@H]3c4[nH]c5ccc(OC)cc5c4CCN(C2)[C@@H]13` [IBOGAINE], the Retention_time stood at 4.94 min.
Next, `CNC(C)Cc1ccc2c(c1)OCO2` (stereo not drawn) [MIDOMAFETAMINE]: 2.89 min; `CCN(C(C)=O)c1cccc(-c2ccnc3c(C#N)cnn23)c1` [ZALEPLON]: 5.68 min; `CN[C@H]1CC[C@@H](c2ccc(Cl)c(Cl)c2)c2ccccc21` [SERTRALINE]: 6.04 min.
Then `CC(CN1c2ccccc2Sc2ccccc21)N(C)C` (stereo not drawn) [PROMETHAZINE], with 5.7 min; and `CNC1=Nc2ccc(Cl)cc2C(c2ccccc2)=[N+]([O-])C1` [CHLORDIAZEPOXIDE], with 4.94 min.
Then `COC(=O)C1=C(C)NC(C)=C(C(=O)OC(C)C)C1c1cccc2nonc12` (stereo not drawn) [ISRADIPINE], with 7 min; and `COc1cc(CC(C)N)c(OC)cc1C` (stereo not drawn) [DOM], with 4.67 min.
Consider `CC(C)NCC(O)COc1cccc2ccccc12` (stereo not drawn) [PROPRANOLOL], for which the Retention_time worked out at 5.28 min.
Next, `CCC(Cc1ccc2c(c1)OCO2)NC` (stereo not drawn): 3.61 min.
On to `CCN(CC)CCNC(=O)c1cc(Cl)c(N)cc1OC` [METOCLOPRAMIDE], for which the Retention_time worked out at 3.64 min.
For `CCC(=O)O[C@](Cc1ccccc1)(c1ccccc1)[C@H](C)CN(C)C` [PROPOXYPHENE], the Retention_time came out at 5.98 min.
Turning to `CN(C)CCc1c[nH]c2ccc(C[C@H]3COC(=O)N3)cc12` [ZOLMITRIPTAN], the Retention_time turned out to be 2.7 min.
Then `CC(=O)c1ccc2c(c1)N(CCCN(C)C)c1ccccc1S2` [ACEPROMAZINE], with 5.67 min; and `CN[C@@H](C)[C@@H](O)c1ccccc1` [PSEUDOEPHEDRINE], with 2.28 min.
Next, `COc1ccccc1OCCNCC(O)COc1cccc2[nH]c3ccccc3c12` (stereo not drawn) [CARVEDILOL]: 5.71 min; `COc1ccc(CCN(C)CCCC(C#N)(c2ccc(OC)c(OC)c2)C(C)C)cc1OC` (stereo not drawn): 5.95 min; `CC(C)NCC(O)COc1cccc2[nH]ccc12` (stereo not drawn) [PINDOLOL]: 3 min.
Next, `CCOC(=O)[C@H](CCc1ccccc1)N[C@@H](C)C(=O)N1CCC[C@H]1C(=O)O`: 5.23 min; `Cc1ncc2n1-c1ccc(Cl)cc1C(c1ccccc1F)=NC2` [MIDAZOLAM]: 5.45 min.
As to `CO[C@]12CC[C@@]3(C[C@@H]1[C@](C)(O)C(C)(C)C)[C@H]1Cc4ccc(O)c5c4[C@@]3(CCN1CC1CC1)[C@H]2O5` [BUPRENORPHINE], the Retention_time is 5.59 min.
On to `OCc1cc(C(O)CNCCCCCCOCCCCc2ccccc2)ccc1O` (stereo not drawn) [SALMETEROL], for which the Retention_time is reported as 6.14 min.
Then `NC1=Nc2ccc(Cl)cc2C(c2ccccc2)=[N+]([O-])C1`, with 4.85 min; and `CC(CCc1ccccc1)NCC(O)c1ccc(O)c(C(N)=O)c1` (stereo not drawn) [LABETALOL], with 4.95 min; and `CN1CCN=C(c2ccccc2)c2cc(Cl)ccc21` [MEDAZEPAM], with 5.45 min.
Next, `COc1ccc2c3c1O[C@H]1C(=O)CC[C@H]4[C@@H](C2)N(C)CC[C@]314` [HYDROCODONE]: 2.96 min.
Next, `COc1ccc(N2CCNCC2)cc1`: 2.59 min; `CN(C)C(=O)C(CCN1CCC(O)(c2ccc(Cl)cc2)CC1)(c1ccccc1)c1ccccc1` [LOPERAMIDE]: 6.37 min; `CN1CCC[C@@H]1Cc1c[nH]c2ccc(CCS(=O)(=O)c3ccccc3)cc12`: 5.21 min.
Take `COCCCC/C(=N\OCCN)c1ccc(C(F)(F)F)cc1` [FLUVOXAMINE]: the Retention_time is given as 5.91 min.
Then `O=C(CCCN1CCC(O)(c2ccc(Cl)cc2)CC1)c1ccc(F)cc1` [HALOPERIDOL], with 5.57 min; and `CN1C(=O)CN=C(c2ccccc2F)c2cc(N)ccc21` [7-AMINO-FLUNITRAZEPAM], with 4.02 min.
Then `CCN1CCCC1CNC(=O)c1cc(S(=O)(=O)CC)c(N)cc1OC` (stereo not drawn) [AMISULPRIDE], with 3.4 min; and `CCCCc1nc(Cl)c(CO)n1Cc1ccc(-c2ccccc2-c2nn[nH]n2)cc1` [LOSARTAN], with 6.09 min; and `c1ccc(C2(N3CCCCC3)CCCCC2)cc1` [PHENCYCLIDINE], with 5.23 min.
With `O=C1CC(=O)N(c2ccccc2)c2cc(Cl)ccc2N1` [NOR-CLOBAZAM], the Retention_time was 5.61 min.
Then `CN1C(=O)C(O)N=C(c2ccccc2Cl)c2cc(Cl)ccc21` (stereo not drawn) [LORMETAZEPAM], with 6.41 min.
Then `CCCCN1CCCCC1C(=O)Nc1c(C)cccc1C` (stereo not drawn) [BUPIVACAINE], with 5.08 min.
